According to patent US4923963A, “Bradykinin antagonist peptides” (Nova Technology Limited Partnership, priority 1987, dated 1990):
Where two headings read alike, the source gives them in different places. Square brackets hold non-standard residues; d marks the D form. Peptide text beside a SMILES is read from it. dPhe(4-Cl) = N[C@H](Cc1ccc(Cl)cc1)C(=O)O; dPhe(4-F) = N[C@H](Cc1ccc(F)cc1)C(=O)O; d2Nal = N[C@H](Cc1ccc2ccccc2c1)C(=O)O; Hyp = O=C(O)[C@@H]1C[C@@H](O)CN1; 2Thi = N[C@@H](Cc1cccs1)C(=O)O; d2Thi = N[C@H](Cc1cccs1)C(=O)O

What was measured:
isolated rat uterus = assay type: cell-based; settings: for pA2 /RUT: activity class: not quantitated
How it was run: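 Antagonism of bradykinin-induced contraction in isolated rat uterus (natural or induced estrus) and guinea pig ileum. Antagonist preincubated 30 s before a double-ED50 bradykinin dose, with the dose raised until the response fell to that of a single ED50. pA2 is the negative log molar antagonist concentration achieving this (Schild method).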

[1] = test system: isolated guinea pig ileum; assay type: cell-based; design: pA2 /GPI: activity class: scale not given here; settings: isolated guinea pig ileum; for pA2 /GPI: activity class: not quantitated; for pA2 /GPI (antagonist potency): number of tissues in parentheses
Method: The bradykinin antagonists were assayed on isolated rat uterus in natural or induced estrus and on guinea pig ileum, according to the commonly accepted assay methods for bradykinin and related kinins as described by Trautschold (Handbook of Expt. Pharmacol. Vol 25, Springer Verlag, pp. 53-55, 1970) for inhibition of the myotropic activity of bradykinin. The inhibition potencies, as determined according to the commonly accepted manner described by Schild for antagonists of biologically active compounds (Br. J. Pharmacol. 2:189, 1947), and expressed as pA2 values are determined on isolated rat uterus (RUT) and isolated guinea pig ileum (GPI). In the assays, a dose-response curve is determined for the reference substance bradykinin. The dose of bradykinin which produced a half maximal contraction of tissue is the ED50 dose. An amount of bradykinin equivalent to twice the ED50 dose is administered to the tissue 30 seconds after the start of incubation of the tissue with a dose of antagonist. Doses of antagonist are increased in this protocol until pre-incubation with a dose of antagonist reduces the contraction in response to the double ED50 dose of bradykinin to response of a single ED50 dose of bradykinin. The pA2 value represents the negative logarithm of the molar concentration of antagonist necessary to reduce the response of a double ED50 dose of bradykinin to that of an ED50 dose. One unit of pA2 value represents an order of magnitude change in potency. For comparison, the negative log of the dose of BK, the dose which causes half maximal contraction of the tissues, is commonly known as the pD2 value. The pD2 value for bradykinin is 7.9 on the rat uterus and 7.4 on the guinea pig ileum.

rat blood pressure = test: effects on blood pressure in the anesthetized rat (RBP), intraaortic and intravenous bolus; assay type: in vivo; design: RBP-IA: activity class / RBP-IV: activity class: scale not given here
Method: The in vivo effects of bradykinin antagonists on blood pressure in the anesthetized rat are determined according to the assay described by Roblero, Ryan and Stewart (Res. Commun. Pathol. Pharmacol. 6:207, 1973). The antagonists also produce inhibition of the bradykinin response when injected as a bolus admixture of bradykinin plus antagonist by either the ia or iv route of administration.

[2] = rat blood pressure, intraaortic bolus
[3] = rat blood pressure, intravenous bolus
[4] = isolated rat uterus, number of tissues in parentheses

CC[C@H](C)[C@H](NC(=O)[C@H](CCCNC(=N)N)NC(=O)[C@H](Cc1ccccc1)NC(=O)[C@@H]1CCCN1C(=O)[C@H](CO)NC(=O)[C@H](Cc1ccccc1)NC(=O)CNC(=O)[C@@H]1CCCN1C(=O)[C@@H]1CCCN1C(=O)[C@H](CCCNC(=N)N)NC(=O)[C@H](CCCCN)NC(=O)[C@@H](N)CCCCN)C(=O)N[C@@H](Cc1ccc(O)cc1)C(=O)O [Example 61, Lys-Lys-Arg-Pro-Pro-Gly-Phe-Ser-Pro-Phe-Arg-Ile-Tyr]
pA2 /RUT: agonist potency as percent of BK potency (isolated rat uterus; isolated rat uterus): 18% | pA2 /GPI: agonist potency as percent of BK potency [1]: 21% | RBP-IA: agonist potency as percent of BK potency (rat blood pressure; [2]): 9% | RBP-IV: agonist potency as percent of BK potency (rat blood pressure; [3]): 497% | % DESTR (metabolic breakdown of BK-like agonists in RBP assay) (rat blood pressure; relative to BK = 100%): 0%

N=C(N)NCCC[C@@H](N)C(=O)N[C@H](Cc1cccs1)C(=O)N1CCC[C@H]1C(=O)N1CCC[C@H]1C(=O)NCC(=O)N[C@@H](Cc1ccccc1)C(=O)N[C@@H](CO)C(=O)N[C@H](Cc1cccs1)C(=O)N[C@@H](Cc1ccccc1)C(=O)N[C@@H](CCCNC(=N)N)C(=O)O [Example 35, DArg-DThi-Pro-Pro-Gly-Phe-Ser-DThi-Phe-Arg] (H-[dR][d2Thi]PPGFS[d2Thi]FR-OH)
pA2 /RUT: activity class (isolated rat uterus; isolated rat uterus): 0 | pA2 /GPI: activity class [1]: 0 | RBP-IA: activity class (rat blood pressure; [2]): 0 | RBP-IV: activity class (rat blood pressure; [3]): 0

N=C(N)NCCC[C@H](N)C(=O)N1CCC[C@H]1C(=O)N1CCC[C@H]1C(=O)NCC(=O)N[C@@H](Cc1cccs1)C(=O)N[C@@H](CO)C(=O)N[C@H](Cc1ccccc1)C(=O)N[C@@H](Cc1cccs1)C(=O)N[C@H](CCCNC(=N)N)C(=O)O [Example 41, Arg-Pro-Pro-Gly-Thi-Ser-DPhe-Thi-DArg] (H-RPPG[2Thi]S[dF][2Thi][dR]-OH)
pA2 /RUT: agonist potency as percent of BK potency (isolated rat uterus): 0.01% | pA2 /GPI: activity class [1]: 0 | % DESTR (metabolic breakdown of BK-like agonists in RBP assay) (rat blood pressure; rat, in vivo): 77% | RBP-IA: agonist potency as percent of BK potency (rat blood pressure; rat, in vivo): 0.1% | RBP-IV: agonist potency as percent of BK potency (rat blood pressure; rat, in vivo, iv): 0.6%

N=C(N)NCCC[C@H](NC(=O)[C@H](Cc1ccccc1)NC(=O)[C@@H](Cc1cccs1)NC(=O)[C@H](CO)NC(=O)[C@H](Cc1ccccc1)NC(=O)CNC(=O)[C@@H]1CCCN1C(=O)[C@@H]1CCCN1C(=O)[C@H](N)Cc1cccs1)C(=O)O [Example 33, DThi-Pro-Pro-Gly-Phe-Ser-DThi-Phe-Arg] (H-[d2Thi]PPGFS[d2Thi]FR-OH)
pA2 /RUT: activity class (isolated rat uterus; isolated rat uterus): 0 | pA2 /GPI: activity class [1]: 0 | RBP-IA: activity class (rat blood pressure; [2]): 0 | RBP-IV: activity class (rat blood pressure; [3]): 0

N=C(N)NCCC[C@H](NC(=O)[C@H](Cc1cccs1)NC(=O)[C@@H](Cc1ccccc1)NC(=O)[C@H](CO)NC(=O)[C@H](Cc1cccs1)NC(=O)CNC(=O)[C@@H]1C[C@@H](O)CN1C(=O)[C@@H]1C[C@@H](O)CN1C(=O)[C@H](N)Cc1ccc2ccccc2c1)C(=O)O [Example 26, DNal-Hyp-Hyp-Gly-Thi-Ser-DPhe-Thi-Arg] (H-[d2Nal][Hyp][Hyp]G[2Thi]S[dF][2Thi]R-OH)
pA2 /RUT: activity class (isolated rat uterus; isolated rat uterus): 0 | pA2 /GPI: activity class [1]: 0

N=C(N)NCCC[C@@H](N)C(=O)N[C@H](Cc1ccc(F)cc1)C(=O)N1CCC[C@H]1C(=O)N1C[C@H](O)C[C@H]1C(=O)NCC(=O)N[C@@H](Cc1ccccc1)C(=O)N[C@@H](CO)C(=O)N[C@H](Cc1ccccc1)C(=O)N[C@@H](Cc1ccccc1)C(=O)N[C@@H](CCCNC(=N)N)C(=O)O [Example 12, DArg-FDF-Pro-Hyp-Gly-Phe-Ser-DPhe-Phe-Arg] (H-[dR][dPhe(4-F)]P[Hyp]GFS[dF]FR-OH)
pA2 /RUT (antagonist potency) (isolated rat uterus; [4]): 5.7 | pA2 /GPI: activity class [1]: 0

N=C(N)NCCC[C@H](NC(=O)[C@H](Cc1cccs1)NC(=O)[C@@H](Cc1ccccc1)NC(=O)[C@H](CO)NC(=O)[C@H](Cc1cccs1)NC(=O)CNC(=O)[C@@H]1CCCN1C(=O)[C@@H]1CCCN1C(=O)[C@H](N)Cc1ccccc1)C(=O)O [Example 19, DPhe-Pro-Pro-Gly-Thi-Ser-DPhe-Thi-Arg] (H-[dF]PPG[2Thi]S[dF][2Thi]R-OH)
pA2 /RUT: activity class (isolated rat uterus; isolated rat uterus): 0 | pA2 /GPI: activity class [1]: 0

N=C(N)NCCC[C@@H](N)C(=O)N[C@H](Cc1ccc2ccccc2c1)C(=O)N1CCC[C@H]1C(=O)N1C[C@H](O)C[C@H]1C(=O)NCC(=O)N[C@@H](Cc1ccccc1)C(=O)N[C@@H](CO)C(=O)N[C@H](Cc1ccccc1)C(=O)N[C@@H](Cc1ccccc1)C(=O)N[C@@H](CCCNC(=N)N)C(=O)O [Example 32, DArg-DNal-Pro-Hyp-Gly-Phe-Ser-DPhe-Phe-Arg] (H-[dR][d2Nal]P[Hyp]GFS[dF]FR-OH)
pA2 /RUT (antagonist potency) (isolated rat uterus): 5.9 | pA2 /GPI: activity class [1]: 0

N=C(N)NCCC[C@H](NC(=O)[C@H](Cc1ccccc1)NC(=O)[C@@H](Cc1ccccc1)NC(=O)[C@H](CO)NC(=O)[C@H](Cc1ccccc1)NC(=O)CNC(=O)[C@@H]1CCCN1C(=O)[C@@H]1CCCN1C(=O)[C@H](N)Cc1ccc(Cl)cc1)C(=O)O [Example 2, CDF-Pro-Pro-Gly-Phe-Ser-DPhe-Phe-Arg] (H-[dPhe(4-Cl)]PPGFS[dF]FR-OH)
pA2 /RUT (antagonist potency) (isolated rat uterus; [4]): 5.0 | pA2 /GPI: activity class [1]: 0

CC[C@H](C)[C@H](NC(=O)[C@H](CCCNC(=N)N)NC(=O)[C@H](Cc1cccs1)NC(=O)[C@@H](Cc1ccccc1)NC(=O)[C@H](CO)NC(=O)[C@H](Cc1cccs1)NC(=O)CNC(=O)[C@@H]1CCCN1C(=O)[C@@H]1CCCN1C(=O)[C@H](CCCNC(=N)N)NC(=O)[C@H](N)CCCNC(=N)N)C(=O)N[C@@H](Cc1ccc(O)cc1)C(=O)O [Example 66, DArg-Arg-Pro-Pro-Gly-Thi-Ser-DPhe-Thi-Arg-Ile-Tyr] (H-[dR]RPPG[2Thi]S[dF][2Thi]RIY-OH)
pA2 /RUT: agonist potency as percent of BK potency (isolated rat uterus): 0.3% | pA2 /GPI (antagonist potency) [1]: 5.8

CC(=O)N[C@@H](CCCNC(=N)N)C(=O)N1CCC[C@H]1C(=O)N1CCC[C@H]1C(=O)NCC(=O)N[C@@H](Cc1cccs1)C(=O)N[C@@H](CO)C(=O)N[C@H](Cc1ccccc1)C(=O)N[C@@H](Cc1cccs1)C(=O)N[C@@H](CCCNC(=N)N)C(N)=O [Example 52, Ac-Arg-Pro-Pro-Gly-Thi-Ser-DPhe-Thi-Arg-NH2] (Ac-RPPG[2Thi]S[dF][2Thi]R-NH2)
pA2 /RUT: activity class (isolated rat uterus; isolated rat uterus): 0 | pA2 /GPI: activity class [1]: 0

N=C(N)NCCC[C@H](NC(=O)[C@H](Cc1ccccc1)NC(=O)[C@@H](Cc1cccs1)NC(=O)[C@H](CO)NC(=O)[C@H](Cc1ccccc1)NC(=O)CNC(=O)[C@@H]1C[C@@H](O)CN1C(=O)[C@@H]1CCCN1C(=O)[C@H](N)Cc1ccc2ccccc2c1)C(=O)O [Example 38, DNal-Pro-Hyp-Gly-Phe-Ser-DThi-Phe-Arg] (H-[d2Nal]P[Hyp]GFS[d2Thi]FR-OH)
pA2 /RUT: activity class (isolated rat uterus; isolated rat uterus): 0 | pA2 /GPI: activity class [1]: 0

CC[C@H](C)[C@H](NC(=O)[C@H](CCCNC(=N)N)NC(=O)[C@H](Cc1ccccc1)NC(=O)[C@@H](Cc1ccccc1)NC(=O)[C@H](CO)NC(=O)[C@H](Cc1ccccc1)NC(=O)CNC(=O)[C@@H]1CCCN1C(=O)[C@@H]1CCCN1C(=O)[C@H](CCCNC(=N)N)NC(=O)[C@H](N)CCCNC(=N)N)C(=O)N[C@@H](Cc1ccc(O)cc1)C(=O)O [Example 64, DArg-Arg-Pro-Pro-Gly-Phe-Ser-DPhe-Phe-Arg-Ile-Tyr] (H-[dR]RPPGFS[dF]FRIY-OH)
pA2 /RUT: agonist potency as percent of BK potency (isolated rat uterus; isolated rat uterus): 0.7% | pA2 /GPI (antagonist potency) [1]: 6.2

N=C(N)NCCC[C@@H](N)C(=O)N[C@H](Cc1ccc(Cl)cc1)C(=O)N1CCC[C@H]1C(=O)N1C[C@H](O)C[C@H]1C(=O)NCC(=O)N[C@@H](Cc1ccccc1)C(=O)N[C@@H](CO)C(=O)N[C@H](Cc1ccccc1)C(=O)N[C@@H](Cc1ccccc1)C(=O)N[C@@H](CCCNC(=N)N)C(=O)O [Example 5, DArg-CDF-Pro-Hyp-Gly-Phe-Ser-DPhe-Phe-Arg] (H-[dR][dPhe(4-Cl)]P[Hyp]GFS[dF]FR-OH)
pA2 /RUT (antagonist potency) (isolated rat uterus; [4]): 5.8 | pA2 /GPI: activity class [1]: 0

N=C(N)NCCC[C@@H](N)C(=O)N1CCC[C@H]1C(=O)N1C[C@H](O)C[C@H]1C(=O)NCC(=O)N[C@@H](Cc1cccs1)C(=O)N[C@@H](CO)C(=O)N[C@H](Cc1ccccc1)C(=O)N[C@@H](Cc1cccs1)C(=O)N[C@@H](CCCNC(=N)N)C(=O)O [Example 8, DArg-Pro-Hyp-Gly-Thi-Ser-DPhe-Thi-Arg] (H-[dR]P[Hyp]G[2Thi]S[dF][2Thi]R-OH)
pA2 /RUT (antagonist potency) (isolated rat uterus): 5.4 | pA2 /GPI (antagonist potency) [1]: 5.4

N=C(N)NCCC[C@@H](N)C(=O)N[C@H](Cc1ccc2ccccc2c1)C(=O)N1C[C@H](O)C[C@H]1C(=O)N1C[C@H](O)C[C@H]1C(=O)NCC(=O)N[C@@H](Cc1cccs1)C(=O)N[C@@H](CO)C(=O)N[C@H](Cc1ccccc1)C(=O)N[C@@H](Cc1cccs1)C(=O)N[C@@H](CCCNC(=N)N)C(=O)O [Example 27, DArg-DNal-Hyp-Hyp-Gly-Thi-Ser-DPhe-Thi-Arg] (H-[dR][d2Nal][Hyp][Hyp]G[2Thi]S[dF][2Thi]R-OH)
pA2 /RUT (antagonist potency) (isolated rat uterus): 5.3 | pA2 /GPI: activity class [1]: 0
